Measured values as given in the supplement of paper PMC8671470.

Legend:
Settings in all cases: 72 h
KCL-22 = assay: cell viability (% survival relative to DMSO control, bortezomib = 0%); higher = less cytotoxic
Procedure, shortened: (§1)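 Fifteen myeloid leukaemia cell lines were exposed to compounds at 1, 10, 100, 1000 or 10000 nM in 384-well plates for 72 h at 37 °C and 5% CO2. Viability was read by CellTiter-Glo luminescence and normalised, with vehicle as 100% and a 10 µM positive control as 0%. Values are percent survival averaged over duplicates.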

KG-1 = assay: as above
Procedure, shortened: as §1

MOLM-13 = assay: as above
Procedure, shortened: as §1

HL-60 = assay: area under dose-response curve (viability, 1 nM-10 uM) (fraction (0-1)); higher = more sensitive
Procedure, shortened: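 Area under the curve, where listed, was derived from four-parameter log-logistic fits with drc and PharmacoGx. These fits used CellTiter-Glo viability from HL-60 cells in RPMI 1640 with 10% FBS, normalised to DMSO wells and wells holding 10 μM proteasome inhibitor. The full library was rescreened on 384-well plates in duplicate at five tenfold concentrations, 1–10,000 nM, with DMSO or 100 nM of one of three metabolic inhibitors, for 72 h at 37 °C, 5% CO2.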

[1] = co-treatment: GSK2194069 100 nM
[2] = co-treatment: pictilisib 100 nM

Row | Structure (SMILES) | cell viability (KCL-22; 1 nM) | cell viability (KCL-22; 10 nM) | cell viability (KCL-22; 100 nM) | cell viability (KCL-22; 1000 nM) | cell viability (KCL-22; 10000 nM) | cell viability (KG-1; 1 nM) | cell viability (KG-1; 10 nM) | cell viability (KG-1; 100 nM) | cell viability (KG-1; 1000 nM) | cell viability (KG-1; 10000 nM) | cell viability (MOLM-13; 1 nM) | cell viability (MOLM-13; 10 nM) | cell viability (MOLM-13; 100 nM) | cell viability (MOLM-13; 1000 nM) | cell viability (MOLM-13; 10000 nM) | area under dose-response curve (HL-60; co-treatment: AZD3965 100 nM) | area under dose-response curve (HL-60; co-treatment: DMSO vehicle) | area under dose-response curve (HL-60; [1]) | area under dose-response curve (HL-60; [2])
1 | CN(C)C(=O)[C@H](O)[C@H](Cc1ccccc1)NC(=O)c1cc2cc(Cl)ccc2[nH]1 | 107% | 98.3% | 108% | 105% | 91.6% | 102% | 93.9% | 95.2% | 114% | 80.3% | 97.6% | 98.6% | 101% | 123% | 88.1% | < 0.0301 | < 0.0301 | < 0.0301 | < 0.0301
2 | COc1ccc(CNC(=O)Nc2ncc([N+](=O)[O-])s2)cc1 | 106% | 97.7% | 104% | 102% | 79.7% | 90.5% | 146% | 93.8% | 94.8% | 173% | 99.8% | 108% | 97.8% | 102% | 105% | < 0.0301 | < 0.0301 | < 0.0301 | < 0.0301
3 | O=C(O)C[C@@]1(O)C[C@@H](CCCCCCc2ccc(Cl)cc2Cl)OC1=O | 97.1% | 107% | 88.4% | 97.5% | 112% | 100% | 110% | 99.4% | 112% | 97.9% | 102% | 103% | 110% | 103% | 110% | < 0.0301 | < 0.0301 | < 0.0301 | < 0.0301
4 | O=C(NCCCCCCNC(=O)ONC1=CCCCC1)ONC1=CCCCC1 | 106% | 100% | 115% | 102% | 94.6% | 90.4% | 122% | 114% | 92.8% | 90.4% | 118% | 97% | 109% | 98.7% | 86% | < 0.0301 | < 0.0301 | < 0.0301 | < 0.0301
5 | CCCCCCCCCCCC(=O)c1c(O)c(C(=O)CCCCCCCCCCC)c(O)c(C2CC(c3ccc(O)cc3)Oc3cc(O)ccc32)c1O (configuration not stated) | 107% | 113% | 115% | 123% | 102% | 101% | 117% | 128% | 101% | 81.8% | 101% | 119% | 89.5% | 99.1% | 82.9% |  |  |  | 
6 | CCOP(=O)(OCC)C(=Cc1cc(C(C)(C)C)c(O)c(C(C)(C)C)c1)P(=O)(OCC)OCC | 98.7% | 108% | 125% | 108% | 94% | 96.3% | 91.2% | 121% | 91.2% | 67% | 76% | 81.8% | 122% | 88.9% | 86.5% | < 0.0301 | < 0.0301 | < 0.0301 | < 0.0301
7 | COc1ccc(-c2ccccc2)cc1NS(=O)(=O)c1cc(Cl)cc(Cl)c1O | 90% | 92.8% | 108% | 93.7% | 97.7% | 98.1% | 96.4% | 108% | 83.8% | 99.2% | 101% | 117% | 113% | 81% | 111% | < 0.0301 | < 0.0301 | < 0.0301 | < 0.0301
8 | O=C(O)c1cc(Cl)cc(Cl)c1O [3,5-Dichlorosalicylic Acid] | 105% | 140% | 87% | 94.7% | 85.9% | 107% | 107% | 85.6% | 117% | 96.8% | 92% | 112% | 83.9% | 110% | 91.7% | < 0.0301 | < 0.0301 | < 0.0301 | < 0.0301
9 | O=C(O)C(=O)CBr [3-bromopyruvic acid] | 99.6% | 75.3% | 91.7% | 93.1% | 106% | 94.9% | 93.3% | 111% | 96% | 106% | 95% | 97.4% | 89.2% | 93.8% | 122% | < 0.0301 | < 0.0301 | < 0.0301 | < 0.0301
